Measured values from patent US20240324599A1, “PESTICIDAL ENZYMES FOR USE ON NEMATODES, INSECTS, AND MOLLUSKS” (priority 2023, published 2024).

Test system: corn
Assay: Field trial: esterase on urea with or without NBPT, corn yield
Type: in vivo
Conditions: corn, NBPT 64 fl oz/ton on Urea (135 lb/A Nitrogen), no EstA
Description: Esterase A (EstA) from Bacillus subtilis (SEQ ID NO:254) was produced via fermentation of a recombinantly produced enzyme in Bacillus subtilis. 1, 2, or 3 fl oz of fermentation product was applied onto 135 lb N/A (nitrogen equivalent per acre) urea fertilizer in a concrete mixer, and allowed to mix for 1 minute. A urea control treatment without fermentation media was also created. An addition treatment that contained 64 fl oz/ton N-Butyl-thiophosphoric triamide (NBPT) nitrogen stabilizer or 64 fl oz/ton NBPT nitrogen stabilizer with 3 fl oz/A EstA fermentation product was also included in the trial. Urea, alone or with fermentation media was distributed across 4 small replicated plots each prior to planting of corn with 4 replicates of 400 ft2 each at each site.

CCCCNP(N)(N)=S [NBPT, N-Butyl-thiophosphoric triamide, reference compound]
Yield (base control 188.2): 191.2 Bu/A | Yield (base control 11830.4): 12022.3 Kg/ha
